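Following 48 hours of exposure in 96-well plates, responses at five concentrations were used to interpolate endpoints linearly. GI50 is the concentration that inhibits growth by half.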 Active and inactive are the calls of the source. No stated cut-off is given here; in the data, active = GI50 up to about 1.1 µM and inactive = higher.
Tests used:
Test in all cases: NCI anticancer screen, dose series, 48 h
SF-268 = system: SF-268
NCI-H522 = system: NCI-H522
SK-MEL-28 = system: SK-MEL-28
IGROV-1 = system: IGROV-1
CCRF-CEM = system: CCRF-CEM
OVCAR-4 = system: OVCAR-4
RPMI-8226 = system: RPMI-8226
K562 = system: K562
SNB-19 = system: SNB-19
M14 = system: M14
786-0 = system: 786-0
OVCAR-8 = system: OVCAR-8
OVCAR-5 = system: OVCAR-5
SW-620 = system: SW-620
COLO 205 = system: COLO 205
SK-MEL-2 = system: SK-MEL-2

Measured: GI50

COC(=O)C(Cc1c[nH]c2ccccc12)NC(=O)C(Cc1c[nH]c2ccccc12)NC(=O)OCc1ccccc1 (stereo not drawn)
inactive: SF-268 19.1 µM | NCI-H522 16.3 µM | SK-MEL-28 17.7 µM | IGROV-1 19.3 µM | CCRF-CEM 21.7 µM | OVCAR-4 16.4 µM | RPMI-8226 11.7 µM | K562 23.6 µM | SNB-19 17.5 µM | M14 18.2 µM | 786-0 16.2 µM | OVCAR-8 17.9 µM | OVCAR-5 17.6 µM | SW-620 17.5 µM | COLO 205 16.8 µM

O=C(CCC(=O)C(C(=O)c1ccccc1)c1ccccc1)Nc1cccc(C(F)(F)F)c1 (stereo not drawn)
inactive: SF-268 > 100 µM | SK-MEL-2 > 100 µM | NCI-H522 > 100 µM | IGROV-1 > 100 µM | CCRF-CEM > 100 µM | OVCAR-4 > 100 µM | RPMI-8226 > 100 µM | K562 > 100 µM | SNB-19 > 100 µM | M14 > 100 µM | 786-0 > 100 µM | OVCAR-8 > 100 µM | OVCAR-5 > 100 µM | SW-620 > 100 µM | COLO 205 > 100 µM

COCOCc1cc(OCc2ccccc2)c(OC)cc1Br
inactive: SF-268 84.9 µM | SK-MEL-2 > 100 µM | SK-MEL-28 > 100 µM | IGROV-1 > 100 µM | CCRF-CEM > 100 µM | OVCAR-4 > 100 µM | RPMI-8226 47 µM | K562 63.8 µM | SNB-19 > 100 µM | 786-0 > 100 µM | OVCAR-8 > 100 µM | OVCAR-5 > 100 µM | SW-620 > 100 µM | COLO 205 > 100 µM

O=c1[nH]c2c(c3ccccc13)CCc1ccccc1-2
inactive: SF-268 > 100 µM | SK-MEL-2 > 100 µM | NCI-H522 > 100 µM | SK-MEL-28 > 100 µM | IGROV-1 > 100 µM | OVCAR-4 > 100 µM | RPMI-8226 > 100 µM | K562 > 100 µM | SNB-19 > 100 µM | 786-0 > 100 µM | OVCAR-8 > 100 µM | OVCAR-5 > 100 µM | SW-620 > 100 µM | COLO 205 > 100 µM

O=C(NCC#CCO)C(F)(F)F
inactive: SF-268 > 100 µM | SK-MEL-2 > 100 µM | NCI-H522 > 100 µM | SK-MEL-28 > 100 µM | IGROV-1 > 100 µM | OVCAR-4 > 100 µM | SNB-19 > 100 µM | M14 > 100 µM | 786-0 > 100 µM | OVCAR-8 > 100 µM | OVCAR-5 > 100 µM | SW-620 > 100 µM

N#CC(C#N)=c1c2nsnc2c(=C(C#N)C#N)c2nsnc12
inactive: SF-268 2.3 µM | SK-MEL-2 2.02 µM | NCI-H522 1.96 µM | SK-MEL-28 1.87 µM | OVCAR-4 1.96 µM | SNB-19 2.16 µM | M14 2.07 µM | 786-0 5.16 µM | OVCAR-8 1.69 µM | OVCAR-5 1.89 µM | SW-620 1.47 µM | COLO 205 2.52 µM

Cc1nc2c(N)ncnc2o1
inactive: SF-268 > 100 µM | SK-MEL-2 > 100 µM | NCI-H522 > 100 µM | SK-MEL-28 > 100 µM | IGROV-1 > 100 µM | CCRF-CEM > 100 µM | OVCAR-4 > 100 µM | K562 > 100 µM | SNB-19 > 100 µM | M14 > 100 µM | 786-0 > 100 µM | OVCAR-8 > 100 µM | OVCAR-5 > 100 µM | SW-620 > 100 µM | COLO 205 > 100 µM

COc1ccc2c(C(=O)O)cc3ccccc3c2c1OC
inactive: SF-268 19.4 µM | SK-MEL-2 30.5 µM | NCI-H522 13.8 µM | SK-MEL-28 18.5 µM | CCRF-CEM 24.8 µM | RPMI-8226 31 µM | K562 24.2 µM | SNB-19 43.6 µM | M14 16.4 µM | 786-0 15.7 µM | OVCAR-8 22 µM | OVCAR-5 19.1 µM | SW-620 19.4 µM | COLO 205 22.1 µM

CN/N=C(\C)CC(=O)Nc1cccc(Cl)c1C
inactive: SF-268 > 100 µM | SK-MEL-2 > 100 µM | NCI-H522 38.6 µM | SK-MEL-28 > 100 µM | IGROV-1 > 100 µM | CCRF-CEM 96.6 µM | OVCAR-4 > 100 µM | RPMI-8226 > 100 µM | K562 > 100 µM | SNB-19 > 100 µM | M14 > 100 µM | 786-0 > 100 µM | OVCAR-8 > 100 µM | OVCAR-5 > 100 µM | COLO 205 > 100 µM

O=C(O)c1cc2sc(C(=O)O)cc2s1
inactive: SF-268 > 100 µM | NCI-H522 > 100 µM | IGROV-1 > 100 µM | CCRF-CEM > 100 µM | OVCAR-4 > 100 µM | RPMI-8226 > 100 µM | K562 > 100 µM | SNB-19 > 100 µM | M14 > 100 µM | OVCAR-5 > 100 µM | SW-620 > 100 µM | COLO 205 > 100 µM

O=c1oc2ccccc2n1P(=O)(n1c(=O)oc2ccccc21)n1c(=O)oc2ccccc21
inactive: SF-268 > 100 µM | SK-MEL-2 > 100 µM | NCI-H522 > 100 µM | SK-MEL-28 > 100 µM | IGROV-1 > 100 µM | CCRF-CEM > 100 µM | OVCAR-4 > 100 µM | K562 > 100 µM | SNB-19 > 100 µM | M14 > 100 µM | OVCAR-5 > 100 µM | SW-620 > 100 µM | COLO 205 > 100 µM

CC(C)(C)C(=O)Nc1ccccc1Br
inactive: SK-MEL-2 > 100 µM | SK-MEL-28 > 100 µM | IGROV-1 > 100 µM | CCRF-CEM > 100 µM | OVCAR-4 > 100 µM | RPMI-8226 > 100 µM | K562 > 100 µM | SNB-19 > 100 µM | M14 > 100 µM | 786-0 > 100 µM | OVCAR-8 > 100 µM | OVCAR-5 > 100 µM | SW-620 > 100 µM | COLO 205 > 100 µM

CC(C)C1COC(c2ccc3ccccc3c2-c2c(O[Si](C)(C)C(C)(C)C)ccc3ccccc23)=N1 (stereo not drawn)
inactive: SF-268 17.9 µM | SK-MEL-2 16.1 µM | NCI-H522 15.2 µM | SK-MEL-28 19.1 µM | IGROV-1 20.2 µM | CCRF-CEM 18.1 µM | OVCAR-4 14.6 µM | RPMI-8226 14.7 µM | K562 16.6 µM | SNB-19 14.9 µM | M14 15.8 µM | 786-0 18.4 µM | OVCAR-8 18 µM | OVCAR-5 18.4 µM | SW-620 18.5 µM | COLO 205 18.4 µM

CCCCN(CCCC)CCCn1cnc2ncccc2c1=O
inactive: SF-268 > 100 µM | SK-MEL-2 > 100 µM | NCI-H522 > 100 µM | SK-MEL-28 > 100 µM | IGROV-1 > 100 µM | CCRF-CEM > 100 µM | OVCAR-4 > 100 µM | K562 > 100 µM | SNB-19 > 100 µM | M14 > 100 µM | 786-0 > 100 µM | OVCAR-8 > 100 µM | OVCAR-5 > 100 µM | SW-620 > 100 µM | COLO 205 65.6 µM

O=C(CC12C3C4C1C1C2C3C41CC(=O)NO)NO (stereo not drawn)
inactive: SF-268 50 µM | SK-MEL-2 > 100 µM | NCI-H522 27.7 µM | SK-MEL-28 60.4 µM | CCRF-CEM 26.7 µM | RPMI-8226 40.3 µM | K562 25.2 µM | SNB-19 > 100 µM | M14 28.8 µM | 786-0 40.7 µM | OVCAR-8 33.1 µM | OVCAR-5 > 100 µM | SW-620 38.9 µM | COLO 205 46.3 µM

Cc1ccccc1NC(=O)C(=O)c1c(O)c2ccc(O)cc2oc1=O
inactive: SF-268 > 100 µM | SK-MEL-2 > 100 µM | NCI-H522 > 100 µM | SK-MEL-28 > 100 µM | IGROV-1 > 100 µM | CCRF-CEM > 100 µM | OVCAR-4 > 100 µM | RPMI-8226 > 100 µM | K562 > 100 µM | SNB-19 > 100 µM | M14 > 100 µM | 786-0 > 100 µM | OVCAR-8 > 100 µM | SW-620 > 100 µM | COLO 205 > 100 µM

CSc1ccc2c(cc1=O)C(NC(=O)c1ccc(OC(C)=O)cc1)CCc1cc(O)c(O)c(O)c1-2 (stereo not drawn)
inactive: SF-268 42.1 µM | SK-MEL-2 16.2 µM | NCI-H522 12.8 µM | SK-MEL-28 61.7 µM | CCRF-CEM 3.43 µM | OVCAR-4 9.02 µM | K562 1.95 µM | SNB-19 35.2 µM | M14 16.7 µM | 786-0 31 µM | OVCAR-8 25.1 µM | OVCAR-5 25.1 µM | SW-620 13.1 µM | COLO 205 16.9 µM

CCCN(CCC)c1c([N+](=O)[O-])cc(C(N)=O)cc1[N+](=O)[O-]
inactive: SF-268 > 100 µM | SK-MEL-2 74.5 µM | NCI-H522 36.7 µM | SK-MEL-28 > 100 µM | IGROV-1 > 100 µM | CCRF-CEM 39.1 µM | OVCAR-4 > 100 µM | RPMI-8226 > 100 µM | K562 31.1 µM | M14 > 100 µM | 786-0 > 100 µM | OVCAR-8 92.9 µM | OVCAR-5 > 100 µM | COLO 205 86.9 µM

CC12CCC(=O)N1c1ccc([N+](=O)[O-])cc1N2 (stereo not drawn)
inactive: SF-268 > 100 µM | SK-MEL-2 > 100 µM | NCI-H522 > 100 µM | SK-MEL-28 > 100 µM | IGROV-1 > 100 µM | CCRF-CEM > 100 µM | OVCAR-4 > 100 µM | RPMI-8226 > 100 µM | K562 > 100 µM | SNB-19 > 100 µM | M14 > 100 µM | 786-0 > 100 µM | OVCAR-8 > 100 µM | SW-620 > 100 µM | COLO 205 > 100 µM
